Measurements from paper PMC8297771 (PLoS Pathogens, 2021).

What was measured:
[1] = In vivo pharmacokinetics in beagle dogs; settings: male, plasma, Dog
Description: Study design: […]). Group 1 was dosed with STP0404 at 1 mg/kg by single intravenous administration. Groups 2 to 4 were dosed with STP0404 at 20, 40 and 80 mg/kg, respectively, by single oral administration. The vehicle used for IV study was DMSO: PEG400: […] Blood samples were collected at 0.0833, 0.25, 0.5, 1, 2, 4, 8, 12 (only for PO groups) and 24 hrs post-dose for Groups 1 to 4. STP0404 concentrations in plasma samples were determined by LC-MS/MS. Preclinical Dog pharmacokinetics study (Study no. 400751-2015020201-DPK): A total of 6 male Beagle dogs were divided into two groups (3 animals/group). Following single STP0404 2 mg/kg oral and intravenous administration to Beagle Dogs, STP0404 concentration was determined in plasma, and pharmacokinetic parameters were calculated. […] The concentrations of STP0404 in plasma were determined by using a LC/MS/MS method.

CHL/IU cells = experiment: Chromosomal aberration test in cultured mammalian cells (GLP); assay type: cell-based; settings: 25~140 μg/mL
Description: (§1) Bacterial reverse mutation assay (Study no. YL18407). The bacterial reverse mutation assay of STP0404 was performed in two conditions (with or without metabolic activation) for the dose range-finding test (doses of STP0404rangingfrom 2.29 to 5,000μg/plate) and the main test (doses of STP0404 ranging from 19.5 to 5,000 μg/plate) in comparison with negative control (DMSO) and active controls (sodium azide, 2-(2-furyl)-3-(5-nitro-2-furyl) acrylamide, 2-aminoanthracene, 9-aminoacridine hydrochloride). Salmonella typhimurium (TA100, TA1535) and Escherichia coli (WP2uvrA) were used for detection of base-pair substitutions. Salmonella typhimurium (TA98, TA1537) was used for detection of frameshift mutations. Chromosomal Aberration Test of STP0404 in Cultured Mammalian Cells (Study no. YL18408). Presence/absence of genotoxicity of STP0404 was determined using chromosomal aberration test carried out in CHL/IU cells. The test comprised a dose range-finding test and a main test. Micronucleus Study of STP0404 by oral administration in Rats (Study no. YL18409). STP0404 was administered orally to SD rats (3/group in preliminary test and 6/group in the main test) at dose levels of 500, 1000 and 2000 mg/kg/day once daily for 2 days in a two-test study (preliminary test and main test) to investigate the genotoxicity profile of STP0404. […] Bone marrow smear slides were evaluated (INA Research, Japan).

human PBMCs = experiment: Tissue culture cytotoxicity measurement in human PBMCs; assay type: cell-based
Source text: Multiple chemical scaffolds such as quinoline (BI224436, Fig 1A), benzothiazole (GS-9822, Fig 1B) and pyridine (KF116, Fig 1C) were previously explored for the discovery of ALLINIs. Here, we employed the pyrrolopyridine-based scaffold to synthesize an ALLINI candidate compound, STP0404 (Fig 1D). STP0404 harbors the tert-butoxy moiety that is common to other ALLINIs (Fig 1). First, we measured its in vitro anti-HIV-1 efficacy and cytotoxicity using various HIV-1 strains in multiple cell types, with cytotoxicity initially tested up to 10 μM (Table 1). […] The calculated in vitro minimum therapeutic index (TI) of STP0404 under these conditions was accordingly >25,000. For comparison, we employed two FDA-approved HIV-1 inhibitors, AZT (RT inhibitor) and Raltegravir (Ral, INSTI), alongside 5 different Ral-resistant clinical isolates (Table 1).

[2] = Four-week oral dose toxicology study in dogs (GLP); assay type: in vivo, beagle dogs; settings: for NOAEL at 4 weeks: both sexes, beagle
Description: STP0404 was administered orally to 10 or 15 SD rats/sex/group at dose levels of 100, 300 and 600 mg/kg/day for 4 weeks to evaluate its potential toxicity. The reversibility of any effects was also assessed following a 2-week untreated recovery period. Control animals (15 animals/sex) received the vehicle, 0.5 w/v% methylcellulose solution, in a similar manner for comparison. In addition, plasma STP0404 concentrations were determined using TK satellite animals (3 animals/sex/group) to evaluate systemic exposure of the animals to the test article. (Study no. YL18402). STP0404 was administered orally as a capsule to 4 or 6 dogs/sex/group at dose levels of 30, 60 and 90 mg/kg/day for 4 weeks to evaluate its potential toxicity. Control animals (6 animals/sex) received empty gelatin capsules in a similar manner for comparison. The reversibility of any effects was also assessed following a 2-week untreated recovery period (2 animals/sex/group for the control and 90 mg/kg/day groups). In addition, plasma STP0404 concentrations were determined using all tested animals (including control group) to evaluate systemic exposure of the animals to the test article (Study no. YL18403). The test was performed according to the Standard Operating Procedures (SOP) the Good Laboratory Practice (GLP) system of the INA Research.

[3] = Hepatocyte stability determination; assay type: in vitro ADME; settings: monkey and human hepatocytes
Description: Incubation was conducted in 96-well cell culture plate format. The plates were labeled as T0, T15, T30, T60, T90, T0-MC, T90-MC and Blank, respectively. All plates were pre-warmed for 10 to 20 mins at 37±1°C in an incubator of 5% CO2 and saturated humidity. The vials of cryopreserved SD rat, beagle dog, cynomolgus monkey and human hepatocyte were removed from the liquid nitrogen container and immediately immersed in a water bath (the setting temperature was 37°C) for approximately 90 secs to allow the ice pellets melted. The melted ice pellets were transferred into pre-warmed 40 mL of Thawing Medium tubes mixed well by gently inverting the tubes then centrifuged at 100 ×g for 5 mins at room temperature. The supernatants were discarded and cell pellets were re-suspended by adding appropriate volumes of pre-warmed WEM. The cells viability of each species was determined using Trypan Blue exclusion. The viabilities of rat, dog, cynomolgus and human hepatocytes were 89.0%, 94.3%, 88.0% and 91.8%, respectively. Cells were finally diluted to 0.625×10^6 cells/mL with pre-warmed WEM. At each corresponding time point, the sample reactions were stopped by adding 150 μL of acetonitrile containing 200 ng/mL tolbutamide and 200 ng/mL labetalol as internal standards. All sample plates were thoroughly mixed and centrifuged at 3220 ×g for 20 mins. […]

bone marrow cells = experiment: Micronucleus study by oral administration in rats (GLP); assay type: in vivo, SD rats; settings: 500, 1000 and 2000 mg/kg/day
Description: as §1

## Cc1nc2c(c(C)c(C)n2Cc2cnn(C)c2)c(-c2ccc(Cl)cc2)c1[C@H](OC(C)(C)C)C(=O)O [STP0404]
[1]; iv, 2 mg/kg (i.v)
  AUC: 9.26 µM·h
  half-life: 6.11 h
[1]; po, 2 mg/kg (p.o)
  AUC: 4.68 µM·h
  Cmax: 3.98 µM
  half-life: 6.9 h
[1]; po, 2 mg/kg (p.o), read-out: Ft (oral bioavailability)
  bioavailability: 50.6%
CHL/IU cells
  chromosomal aberration-inducing potential: lacked
Human PBMCs; human
  TC50: >10,000 nM
Human PBMCs; human PBMCs, NL4-3, tested up to 10 μM
  TC50: >10,000 nM
Human PBMCs; human PBMCs, no observable cytotoxicity at 10 μM
  TC50: > 10 µM
[2]; beagle dogs, oral
  single dose well tolerated up to: up to 500 mg/kg
[2]; dog, in vivo, dogs, 4-week once daily oral dose
  NOAEL at 4 weeks: 90 mg/kg
[2]; dog, in vivo, male and female dogs, four-week oral
  NOAEL at 4 weeks: 90 mg/kg/day
[2]; dog, in vivo
  histopathology lesions (in words): lesions were not observed in any organ
[2]; dogs, 30 mg/kg, 60 mg/kg and 90 mg/kg, four-week oral
  abnormal changes (in words): no abnormal changes were noted at any dose level
[2]; four-week dog toxicology study, ICH guidance S9
  highest non-severely toxic dose (HNSTD): 90 mg/kg/day
[3]
  metabolic stability in hepatocytes (in words): much longer metabolic stability
Bone marrow cells
  bone marrow cell proliferation inhibitory potential: lacked
  micronucleus-inducing potential: lacked
